Assay [1] concerns the target Botulinum neurotoxin type F (Clostridium botulinum, UniProt P30996). Nature of the assay: High-throughput multiplex microsphere dose response for inhibitors of toxin protease, specifically Botulinum neurotoxin light chain F protease, compounds from Cherry Pick 02. Format: functional. Particulars: read-out: EC50_MICROM.
Assay [2] has as its target T1, Lethal factor (Bacillus anthracis, UniProt P15917). Nature of the assay: High-throughput multiplex microsphere dose response for inhibitors of toxin protease, specifically Lethal Factor protease, compounds from Cherry Pick 02. The format is functional. The following applies: read-out: EC50_MICROM.
The target of assay [3] is 5-hydroxytryptamine receptor 2A (Mus musculus, UniProt P35363). Format: functional, cell-based.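 Also: CHO-K1 cells with tagged receptor and beta-arrestin; agonist potency measured as compound-induced activation of the receptor.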
A further assay deals with Mu-type opioid receptor (Homo sapiens, UniProt P35372). Format: functional, cell-based.
A short description of assay [4]: T. cruzi growth inhibition in host cells, dose response, cell-based, plate reader, dry powder, set 2 (AID 652275). Format: functional.
Assay [5] is described as follows: anti-trypanosomal activity in BESM host cells – imaging, CA-I/72 strain, bovine embryo skeletal muscle, dry powder, dose response (AID 651885). The format is functional, cell-based.
Assay [6] addresses Nuclear receptor subfamily 0 group B member 1 (Homo sapiens, UniProt P51843). Format: functional, cell-based.
Another assay is described as follows: cells. Format: functional, cell-based.
Assay [7] concerns the target T2, Low molecular weight phosphotyrosine protein phosphatase (Homo sapiens, UniProt P24666).
T2 sequence (P24666 whole entry): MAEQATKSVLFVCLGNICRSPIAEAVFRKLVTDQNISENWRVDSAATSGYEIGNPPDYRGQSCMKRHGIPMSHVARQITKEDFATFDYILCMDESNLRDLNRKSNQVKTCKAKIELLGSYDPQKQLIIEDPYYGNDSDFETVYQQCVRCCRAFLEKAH
Format: functional. Particulars: read-out: IC50_Mean.

The nature of assay [8]: Luminescence Cell-Based Dose Retest to Confirm Inhibitors of Cancer Stem Cells. [Related pubchem assays (depositor defined):AID2717, AID2721]. The format is functional. Particulars: Homo sapiens.
For assay [9], the target named is T2, Low molecular weight phosphotyrosine protein phosphatase. The format is functional. The following applies: read-out: IC50_Mean. This is another data set of the same source.
Assay [10] deals with T3, Botulinum neurotoxin type A (Clostridium botulinum (strain Hall / ATCC 3502 / NCTC 13319 / Type A), UniProt P0DPI1). The experiment in a line: Confirmatory FRET assay using full length substrates for Botulinum neurotoxin light chain A protease, with Powder Set01. The format is functional.
For assay [11], the target named is T1, Lethal factor. The experiment in a line: High-throughput multiplex microsphere dose response for inhibitors of toxin protease, specifically Lethal Factor protease, compounds from Powder Set 01. The format is functional, Bacillus anthracis str. A2012. The following applies: read-out: EC50_MICROM.
Assay [12] concerns the target T3, Botulinum neurotoxin type A. The experiment in a line: High-throughput multiplex microsphere dose response for inhibitors of toxin protease, specifically Botulinum neurotoxin light chain A protease, compounds from Powder Set 01. The following applies: read-out: EC50_MICROM. Format: functional, Clostridium botulinum A str. ATCC 3502.
Assay [13] concerns the target T4, Tyrosine-protein phosphatase non-receptor type 22 (Homo sapiens, UniProt Q9Y2R2).
T4 sequence (Q9Y2R2 whole entry): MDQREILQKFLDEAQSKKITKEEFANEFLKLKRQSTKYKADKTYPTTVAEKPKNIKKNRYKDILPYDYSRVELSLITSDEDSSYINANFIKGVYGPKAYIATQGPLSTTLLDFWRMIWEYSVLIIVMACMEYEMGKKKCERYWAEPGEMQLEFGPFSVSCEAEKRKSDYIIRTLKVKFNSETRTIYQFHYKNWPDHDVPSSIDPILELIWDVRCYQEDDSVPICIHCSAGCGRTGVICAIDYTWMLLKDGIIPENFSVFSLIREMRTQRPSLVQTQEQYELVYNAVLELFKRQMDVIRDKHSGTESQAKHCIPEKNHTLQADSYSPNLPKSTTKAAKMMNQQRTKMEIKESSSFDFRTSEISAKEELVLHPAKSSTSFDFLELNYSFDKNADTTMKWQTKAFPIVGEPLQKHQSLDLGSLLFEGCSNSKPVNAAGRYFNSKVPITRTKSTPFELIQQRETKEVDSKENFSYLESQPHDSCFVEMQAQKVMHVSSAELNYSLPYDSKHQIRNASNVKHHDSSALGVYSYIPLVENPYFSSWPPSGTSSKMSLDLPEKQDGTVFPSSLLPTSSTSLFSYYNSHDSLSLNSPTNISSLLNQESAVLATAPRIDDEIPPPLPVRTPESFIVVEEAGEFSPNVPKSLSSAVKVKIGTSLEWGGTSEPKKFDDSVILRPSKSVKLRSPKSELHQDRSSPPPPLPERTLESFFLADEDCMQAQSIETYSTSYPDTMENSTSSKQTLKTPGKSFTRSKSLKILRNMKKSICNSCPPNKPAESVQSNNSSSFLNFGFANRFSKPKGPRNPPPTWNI
Nature of the assay: lymphoid phosphatase LYP inhibitors – biochemical, selectivity assay for STEP inhibitor project, dose response (AID 624241). The format is functional.

Assay [14] addresses T5, SUMO-activating enzyme (Homo sapiens, UniProt Q9UBT2). Nature of the assay: blockers of UBC9-mediated SUMO conjugation – biochemical, AlphaScreen, SUMOylation inhibitor project, confirmation (AID 2018). Format: functional.
The target of assay [15] is T6, Small ubiquitin-related modifier 1 (Homo sapiens, UniProt P63165). Nature of the assay: SUMO1 protein interaction blockers, potency – biochemical, fluorescence polarization, uHTS hits, dose response (AID 624382). The format is functional. Particulars: read-out: IC50_Mean. For orientation: In fluorescence polarisation assays a small probe gives low polarisation when free and higher when bound to something large.

The target in assay [16] is T7, Tyrosine-protein phosphatase non-receptor type 11 (Homo sapiens, UniProt Q06124).
T7 sequence (Q06124 whole entry): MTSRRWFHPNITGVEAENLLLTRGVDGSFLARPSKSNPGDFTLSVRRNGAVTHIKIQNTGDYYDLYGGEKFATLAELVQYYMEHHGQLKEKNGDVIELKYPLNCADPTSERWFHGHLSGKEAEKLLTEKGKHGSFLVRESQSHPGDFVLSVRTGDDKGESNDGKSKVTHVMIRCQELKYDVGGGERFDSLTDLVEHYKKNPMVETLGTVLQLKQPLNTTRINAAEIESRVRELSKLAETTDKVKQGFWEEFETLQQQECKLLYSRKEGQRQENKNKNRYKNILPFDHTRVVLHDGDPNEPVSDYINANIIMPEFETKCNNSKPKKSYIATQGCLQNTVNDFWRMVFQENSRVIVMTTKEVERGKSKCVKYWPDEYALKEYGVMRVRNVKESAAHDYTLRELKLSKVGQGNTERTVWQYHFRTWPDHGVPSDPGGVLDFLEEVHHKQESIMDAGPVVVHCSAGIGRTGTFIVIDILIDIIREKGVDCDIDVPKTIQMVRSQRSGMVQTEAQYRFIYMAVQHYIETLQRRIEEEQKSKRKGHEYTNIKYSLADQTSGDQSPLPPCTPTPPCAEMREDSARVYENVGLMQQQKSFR
The experiment in a line: PTPN11 enzyme inhibitors – biochemical, selectivity assay for STEP inhibitor project, dose response (AID 602367). The following applies: read-out: IC50_Mean. The format is functional.

For assay [17], the target named is T8, Carboxy-terminal domain RNA polymerase II polypeptide A small phosphatase 1 (Homo sapiens, UniProt Q9GZU7).
T8 sequence (Q9GZU7 whole entry): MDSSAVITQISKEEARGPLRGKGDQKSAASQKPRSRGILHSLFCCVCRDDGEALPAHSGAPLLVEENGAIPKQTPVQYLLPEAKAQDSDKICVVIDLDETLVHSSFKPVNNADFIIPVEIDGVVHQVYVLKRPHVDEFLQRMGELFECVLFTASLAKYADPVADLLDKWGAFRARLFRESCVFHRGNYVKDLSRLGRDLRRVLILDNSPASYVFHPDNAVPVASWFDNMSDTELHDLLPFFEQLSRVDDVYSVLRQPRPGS
Nature of the assay: CTDSP1 inhibitors, concentration-response, biochemical, absorbance readout, ultra-high-throughput screen actives (AID 540297). Format: functional.

The target of assay [18] is Dual specificity protein phosphatase 3 (Homo sapiens, UniProt P51452). Nature of the assay: VHR phosphatase inhibition, dose response, selectivity assay for STEP inhibitor project, biochemical (AID 602374). The format is functional. Particulars: read-out: IC50_Mean.
Assay [19] has as its target T5, SUMO-activating enzyme. Nature of the assay: blockers of SAE1/SAE2–UBC9 SUMO transfer – biochemical, HTRF, uHTS, primary screen (AID 2006). Format: protein-complex assay.
Assay [20] has as its target T6, Small ubiquitin-related modifier 1. The experiment in a line: SUMO1 protein-protein binding blockers, potency – biochemical, FRET, dose response (AID 624383). Format: functional. Particulars: read-out: IC50_Mean.
The target in assay [21] is T9, Tyrosine-protein phosphatase non-receptor type 5 (Homo sapiens, UniProt P54829).
T9 sequence (P54829 whole entry): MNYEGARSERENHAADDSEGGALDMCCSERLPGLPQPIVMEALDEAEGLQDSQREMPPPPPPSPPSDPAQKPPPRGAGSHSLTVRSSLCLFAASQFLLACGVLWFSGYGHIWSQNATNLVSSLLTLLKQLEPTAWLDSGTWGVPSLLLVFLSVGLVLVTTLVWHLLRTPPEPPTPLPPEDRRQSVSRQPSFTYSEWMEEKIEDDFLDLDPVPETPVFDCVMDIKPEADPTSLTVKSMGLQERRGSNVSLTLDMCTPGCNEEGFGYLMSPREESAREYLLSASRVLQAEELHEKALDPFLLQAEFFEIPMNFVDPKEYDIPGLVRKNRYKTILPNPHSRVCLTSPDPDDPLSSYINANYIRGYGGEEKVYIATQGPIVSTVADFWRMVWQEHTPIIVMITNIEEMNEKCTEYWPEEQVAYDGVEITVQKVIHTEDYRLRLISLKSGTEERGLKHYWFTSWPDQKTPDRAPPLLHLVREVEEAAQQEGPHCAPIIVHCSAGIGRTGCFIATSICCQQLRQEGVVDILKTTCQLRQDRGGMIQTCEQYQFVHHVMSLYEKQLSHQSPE
The experiment in a line: PTPN5 enzyme inhibition – biochemical, fluorescence intensity, uHTS hits, confirmation (AID 602372). The following applies: read-out: IC50_Mean. Format: functional.

Activity calls are given as the source filed them.

The term AC50 denotes the midpoint of the concentration-response curve, whichever way the signal moves.

T6 sequence (P63165 whole entry): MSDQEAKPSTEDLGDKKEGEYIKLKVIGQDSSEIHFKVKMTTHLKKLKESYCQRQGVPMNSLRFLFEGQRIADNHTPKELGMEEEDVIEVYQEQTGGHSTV
T1 sequence (P15917 whole entry): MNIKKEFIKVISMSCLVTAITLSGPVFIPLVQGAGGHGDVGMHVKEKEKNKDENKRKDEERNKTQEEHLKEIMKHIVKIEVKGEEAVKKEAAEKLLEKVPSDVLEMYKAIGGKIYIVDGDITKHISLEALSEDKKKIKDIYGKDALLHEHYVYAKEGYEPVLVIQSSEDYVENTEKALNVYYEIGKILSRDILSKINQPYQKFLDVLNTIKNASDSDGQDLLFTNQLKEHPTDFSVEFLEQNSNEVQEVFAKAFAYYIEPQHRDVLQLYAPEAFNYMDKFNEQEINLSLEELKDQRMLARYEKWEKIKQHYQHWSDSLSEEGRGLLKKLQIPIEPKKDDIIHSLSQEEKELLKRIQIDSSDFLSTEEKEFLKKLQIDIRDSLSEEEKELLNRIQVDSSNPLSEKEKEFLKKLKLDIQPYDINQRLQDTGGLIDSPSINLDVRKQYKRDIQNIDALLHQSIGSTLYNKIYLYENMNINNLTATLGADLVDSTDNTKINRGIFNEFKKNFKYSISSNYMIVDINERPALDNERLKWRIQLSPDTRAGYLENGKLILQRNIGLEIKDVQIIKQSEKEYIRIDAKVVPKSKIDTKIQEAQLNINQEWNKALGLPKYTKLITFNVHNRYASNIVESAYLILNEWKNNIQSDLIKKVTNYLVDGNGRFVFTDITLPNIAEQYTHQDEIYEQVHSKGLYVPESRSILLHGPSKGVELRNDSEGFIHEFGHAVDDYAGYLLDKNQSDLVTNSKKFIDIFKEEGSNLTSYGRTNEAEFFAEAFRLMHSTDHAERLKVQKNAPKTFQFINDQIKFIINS
T5 sequence (Q9UBE0 whole entry): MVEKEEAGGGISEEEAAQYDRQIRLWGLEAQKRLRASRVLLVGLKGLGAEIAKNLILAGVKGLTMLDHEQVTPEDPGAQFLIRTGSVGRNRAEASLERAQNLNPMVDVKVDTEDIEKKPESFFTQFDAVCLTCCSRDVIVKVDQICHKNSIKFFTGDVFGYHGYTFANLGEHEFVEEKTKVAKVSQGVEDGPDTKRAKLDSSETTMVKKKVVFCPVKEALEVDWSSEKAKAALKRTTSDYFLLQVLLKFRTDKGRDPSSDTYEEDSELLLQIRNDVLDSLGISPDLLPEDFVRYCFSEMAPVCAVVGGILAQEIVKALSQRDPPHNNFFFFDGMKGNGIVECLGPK
T5 sequence (Q9UBT2 whole entry): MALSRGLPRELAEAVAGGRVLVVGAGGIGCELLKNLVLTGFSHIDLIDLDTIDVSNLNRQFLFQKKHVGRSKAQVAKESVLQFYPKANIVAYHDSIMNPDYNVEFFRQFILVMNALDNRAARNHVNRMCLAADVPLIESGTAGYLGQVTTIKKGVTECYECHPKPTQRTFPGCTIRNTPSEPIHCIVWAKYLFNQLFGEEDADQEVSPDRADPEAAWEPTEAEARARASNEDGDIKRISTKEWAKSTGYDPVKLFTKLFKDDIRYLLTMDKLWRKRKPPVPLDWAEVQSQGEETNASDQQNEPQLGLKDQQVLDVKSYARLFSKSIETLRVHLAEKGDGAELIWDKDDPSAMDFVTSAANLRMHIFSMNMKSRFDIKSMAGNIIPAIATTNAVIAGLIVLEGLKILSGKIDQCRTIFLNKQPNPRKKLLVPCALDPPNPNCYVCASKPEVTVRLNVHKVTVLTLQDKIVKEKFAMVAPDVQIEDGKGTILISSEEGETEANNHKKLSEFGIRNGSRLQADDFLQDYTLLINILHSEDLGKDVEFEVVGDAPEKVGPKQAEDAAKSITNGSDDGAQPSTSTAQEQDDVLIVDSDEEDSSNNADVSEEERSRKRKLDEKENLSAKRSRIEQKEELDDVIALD
T3 sequence (P0DPI1 2-448 limits assumed): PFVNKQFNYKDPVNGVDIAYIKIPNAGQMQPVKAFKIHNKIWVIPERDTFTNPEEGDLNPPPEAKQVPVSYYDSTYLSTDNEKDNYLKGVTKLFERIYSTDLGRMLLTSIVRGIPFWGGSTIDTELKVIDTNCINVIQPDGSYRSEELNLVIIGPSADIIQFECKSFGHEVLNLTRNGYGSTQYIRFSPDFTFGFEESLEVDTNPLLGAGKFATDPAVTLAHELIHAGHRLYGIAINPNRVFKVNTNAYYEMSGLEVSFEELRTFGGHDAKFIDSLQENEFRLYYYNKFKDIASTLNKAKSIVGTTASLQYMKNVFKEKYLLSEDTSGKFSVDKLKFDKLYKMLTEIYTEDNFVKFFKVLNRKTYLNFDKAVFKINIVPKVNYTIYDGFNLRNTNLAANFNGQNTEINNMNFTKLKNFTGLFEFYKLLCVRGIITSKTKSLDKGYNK
Chain of Botulinum neurotoxin type F (P30996 1-436 limits assumed): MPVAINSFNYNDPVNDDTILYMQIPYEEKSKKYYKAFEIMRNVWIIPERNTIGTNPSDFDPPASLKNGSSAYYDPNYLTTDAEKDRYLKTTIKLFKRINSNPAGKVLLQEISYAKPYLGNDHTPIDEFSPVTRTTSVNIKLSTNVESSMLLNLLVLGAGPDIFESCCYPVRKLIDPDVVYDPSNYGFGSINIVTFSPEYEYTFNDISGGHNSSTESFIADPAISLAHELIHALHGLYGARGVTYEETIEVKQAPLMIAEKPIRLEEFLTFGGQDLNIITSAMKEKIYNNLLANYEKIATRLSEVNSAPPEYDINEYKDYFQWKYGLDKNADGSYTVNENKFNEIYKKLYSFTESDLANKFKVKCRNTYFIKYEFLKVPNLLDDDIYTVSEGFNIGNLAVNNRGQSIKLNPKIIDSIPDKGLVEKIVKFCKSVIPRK
Chain of Mu-type opioid receptor (P35372 whole entry): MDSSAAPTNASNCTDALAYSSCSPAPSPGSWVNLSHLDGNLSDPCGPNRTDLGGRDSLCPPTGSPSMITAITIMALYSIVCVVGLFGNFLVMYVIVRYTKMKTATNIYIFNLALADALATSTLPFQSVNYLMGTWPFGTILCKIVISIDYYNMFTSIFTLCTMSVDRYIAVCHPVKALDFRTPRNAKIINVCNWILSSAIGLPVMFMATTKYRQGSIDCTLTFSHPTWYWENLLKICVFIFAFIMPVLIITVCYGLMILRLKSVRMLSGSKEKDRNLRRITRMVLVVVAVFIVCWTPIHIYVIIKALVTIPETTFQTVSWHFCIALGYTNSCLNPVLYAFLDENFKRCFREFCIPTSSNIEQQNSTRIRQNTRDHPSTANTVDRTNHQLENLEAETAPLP
Chain of Dual specificity protein phosphatase 3 (P51452 whole entry): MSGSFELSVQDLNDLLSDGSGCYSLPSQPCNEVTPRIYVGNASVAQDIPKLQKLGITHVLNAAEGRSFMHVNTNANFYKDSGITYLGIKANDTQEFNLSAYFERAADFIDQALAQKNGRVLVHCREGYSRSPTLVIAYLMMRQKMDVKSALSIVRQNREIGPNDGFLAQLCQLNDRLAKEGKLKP
Chain of Nuclear receptor subfamily 0 group B member 1 (P51843 whole entry): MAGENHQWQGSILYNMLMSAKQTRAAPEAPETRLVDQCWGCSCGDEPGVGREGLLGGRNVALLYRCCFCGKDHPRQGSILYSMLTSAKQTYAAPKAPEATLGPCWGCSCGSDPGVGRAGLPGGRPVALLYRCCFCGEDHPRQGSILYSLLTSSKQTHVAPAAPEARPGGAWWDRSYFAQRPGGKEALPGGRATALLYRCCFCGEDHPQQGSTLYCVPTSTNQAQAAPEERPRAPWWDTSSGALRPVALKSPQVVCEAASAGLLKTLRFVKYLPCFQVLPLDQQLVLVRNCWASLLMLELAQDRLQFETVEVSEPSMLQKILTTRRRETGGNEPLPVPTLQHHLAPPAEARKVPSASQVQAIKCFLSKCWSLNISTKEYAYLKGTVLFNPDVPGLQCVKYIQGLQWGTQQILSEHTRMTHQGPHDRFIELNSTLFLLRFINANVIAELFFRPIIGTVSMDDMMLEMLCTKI
Chain of 5-hydroxytryptamine receptor 2A (P35363 whole entry): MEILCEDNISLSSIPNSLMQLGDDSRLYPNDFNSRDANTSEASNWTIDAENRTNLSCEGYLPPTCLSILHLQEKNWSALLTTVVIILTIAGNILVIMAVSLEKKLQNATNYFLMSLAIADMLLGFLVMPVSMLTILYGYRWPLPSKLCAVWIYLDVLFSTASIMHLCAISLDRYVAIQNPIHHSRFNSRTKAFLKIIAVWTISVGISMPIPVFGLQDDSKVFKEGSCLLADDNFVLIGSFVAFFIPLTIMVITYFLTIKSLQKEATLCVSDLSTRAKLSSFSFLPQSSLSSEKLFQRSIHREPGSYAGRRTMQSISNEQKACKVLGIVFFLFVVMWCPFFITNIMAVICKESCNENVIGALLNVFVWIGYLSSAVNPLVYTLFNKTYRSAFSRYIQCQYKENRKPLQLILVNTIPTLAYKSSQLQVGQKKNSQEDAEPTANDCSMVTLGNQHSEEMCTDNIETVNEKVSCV

With `CCCCCCCCC(c1nc2cc(C)c(C)cc2[nH]1)n1c(=O)c(-c2ccccc2Br)nc2ccccc21` (centres undefined), the figures for the EC50 (in [1]; on Lethal factor [2]) were > 20 µM (inactive) and 17.9 µM (active), respectively.

In the case of `O=C(c1ccco1)N1CCN(Cc2ccc(Br)cc2)CC1`, the EC50 was 2.24 µM (active) in [3] and 92.4 µM (inactive) on Mu-type opioid receptor.

Consider `C[C@@H]1CN([C@@H](C)CO)C(=O)c2cccc(NC(=O)c3ccncc3)c2O[C@H]1CN(C)Cc1ccc(Cl)cc1`, for which the AC50 in assay [4] is 0.0633 µM (active). For the same compound, the IC50 in assay [5] is 0.02 µM (active).

On to `CC(Nc1nc(-c2ccccc2)nc2ccccc12)c1ccccc1` (centres undefined), for which the IC50 in assay [6] was > 67.5 µM (inactive); in the assay “cells”, > 67.5 µM (inactive); in assay [7] it was > 80 µM (inactive); in [9], 23.1 µM (inactive). For the same compound, the AC50 in assay [8] is 4.43 µM (active).

With `COc1ccc(C2CC(c3cccs3)=NN2c2nc(C)c(C(C)=O)s2)cc1OC` (centres undefined), the EC50 is 10.4 µM (active) in [10], 9.6 µM (active) at Lethal factor [11] and 7.5 µM (active) in assay [12].

Take `Cc1c(CC(=O)O)c(=O)oc2c(C)c(OCc3ccc(F)cc3Cl)ccc12`: the IC50 in [13] was 12.7 µM (active); at SUMO-activating enzyme [14], > 100 µM (inactive); in assay [15], > 66.6 µM (inactive); in assay [16], 2.48 µM (active); in assay [17] it was 2.17 µM (active); in assay [18], 3.68 µM (active). Besides, the IC50 at SUMO-activating enzyme [19] was 12.5 µM (active); in assay [20], 15.7 µM (active); in assay [9], 11.5 µM (active); in assay [21], 5.58 µM (active).

The values above are taken from ChEMBL document CHEMBL1201862, “PubChem BioAssay data set” (2004).
